Measurements: PubChem BioAssay AID464 (The Scripps Research Institute Molecular Screening Center, 2006)
Activity calls are given as the source filed them.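 Rule for the calls: active = Compounds that kill half the cells at a concentration of 5 micromolar or below, from the fitted or estimated CC50; inactive = CC50 above 5 micromolar.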

test system: Jurkat E6.1 viability, ATP luminescence, 48 h; experiment: Jurkat E6.1 cell cytotoxicity, CC50 determination, dose response, cytotoxicity control, ATP luminescence, 48 h, 60K MLSMR (AID 464)

SMILES	CC50
CCOc1ccc2ccccc2c1C(=O)N1CCN(c2ccccc2)CC1	3.75 µM
O=S1(=O)C=C(Sc2nc3cc(Cl)ccc3o2)c2ccccc21	9.93 µM (inactive)
CCOc1ccc(N(CC)S(=O)(=O)c2ccc3c(c2)oc(=O)n3C)cc1	2.94 µM
CCCCNc1cc(C)nc(NCc2ccccc2)n1	10.5 µM (inactive)
N=c1ccn(Cc2ccc(Cl)c(Cl)c2)cc1	10.4 µM (inactive)
O=C(Nc1ccncc1)C1CCCN(S(=O)(=O)c2cccc3cccnc23)C1 (centres undefined)	1.42 µM
CCOC(=O)c1c(C)c(C(=O)Nc2cc(OC)ccc2OC)c(C)n1CC	11.4 µM (inactive)
O=c1c2[nH]c3ccc(F)cc3c2ncn1CCCn1ccnc1	17.1 µM (inactive)
CCN(CC)c1ccc(-c2nn3c(-c4n[nH]c5c4CCC5)nnc3s2)cc1	0.895 µM
COc1ccccc1N=c1oc2cc(O)ccc2cc1C(N)=O	> 13 µM (inactive)
CC(=O)NC(c1ccco1)c1ccc2cccnc2c1O (centres undefined)	3.65 µM
COc1cccc(N2C(N)=NC(N)=NC2(C)C)c1	2.58 µM
Cc1nn(Cc2c(Cl)cccc2Cl)c(C)c1NC(=O)c1cc(C(C)C)on1	> 40 µM (inactive)
COc1cc(C2Nc3ccc4ncccc4c3C3=C2C(=O)CCC3)ccc1O (centres undefined)	2.5 µM
CCN=c1scc(-c2ccc3c(c2)NC(=O)CO3)n1N=C1CCCC1	8.47 µM (inactive)
CCOc1ccc(Cl)cc1S(=O)(=O)n1cnc2ccccc21	14.8 µM (inactive)
CN(C)c1ccc(-c2nn3c(-c4ccccc4Cl)nnc3s2)cc1	0.312 µM
O=C(NCc1ccccc1)c1noc2c1CCCC2	8.77 µM (inactive)
Cc1cc(C(=O)Nc2sc3c(c2C#N)CCC3)no1	6.7 µM (inactive)
CCOC(=O)C(C(C)=O)c1c(Br)c(O)c(O)c2c(C(=O)c3ccc(C)cc3)coc12 (centres undefined)	6.14 µM (inactive)
Cc1ccc(S(=O)(=O)Nc2ccc3ncccc3c2)cc1	10.7 µM (inactive)
CC(=O)c1c(N2CCN(Cc3ccccc3)CC2)[nH]c(-c2ccccc2)nc1=S	> 40 µM (inactive)

SMILES	CC50
c1ccc(/N=C2\N=C(Nc3ccccn3)c3ccccc32)nc1	1.12 µM
CCN(CC)c1ccc(-c2nn3c(-c4ccccc4OC)nnc3s2)cc1	0.115 µM
C=CCOC(=O)c1[nH]c2c(c1C)C(=O)CC(c1cc(OC)c(OC)c(OC)c1)C2 (centres undefined)	24 µM (inactive)
CC(=O)c1cn(CC(=O)Nc2ccccc2)c2ccccc12	12.6 µM (inactive)
Cc1ccc(O)c(NC(=O)CCC2CCCCC2)c1	6 µM (inactive)
Oc1c(CN2CCN(c3ccccn3)CC2)cc(Cl)c2cccnc12	2.85 µM
CCCOC(=O)c1[nH]c2c(c1C)C(=O)CC(c1cc(OC)c(OC)c(OC)c1)C2 (centres undefined)	23.8 µM (inactive)
O=C(O)C1CC=CCC1C(=O)Nc1ccc(S(=O)(=O)N2CCCc3ccccc32)cc1 (centres undefined)	> 40 µM (inactive)
CC(C)c1cc(C(=O)Nc2sc3c(c2C#N)CCC3)no1	15.6 µM (inactive)
Cc1ccc(C(=O)Nc2ccc(Cl)cn2)cc1	4.48 µM
CCOC(=O)c1ccc(Oc2cc(C)nc(SC)n2)cc1	7.92 µM (inactive)
COC(=O)c1ccc(Oc2cc(C)nc(SC)n2)cc1	1.68 µM
CCOC(=O)C1CCN(Cc2ccc(O)c3ncccc23)CC1	9.85 µM (inactive)
COc1ccc(-c2cn3c(C)c(C(=O)Nc4cc(NC(C)=O)ccc4OC)sc3n2)cc1	2.23 µM
COC(=O)c1ccc(NC(=O)c2ccc(N(C)S(C)(=O)=O)cc2)cc1	11.9 µM (inactive)
O=S1(=O)C=C(Sc2nnc(-c3ccccc3)o2)c2ccccc21	> 13 µM (inactive)
CCOc1cccc(-n2nnnc2-c2ccc(OC)cc2)c1	1.06 µM
CC1CN(S(=O)(=O)c2ccc(NC(=O)c3cc(-c4ccccc4O)n[nH]3)cc2)CC(C)O1 (centres undefined)	> 13 µM (inactive)
COC(=O)c1[nH]c2c(c1C)C(=O)CC(c1cc(OC)ccc1OC)C2 (centres undefined)	3.89 µM
CCOc1ccccc1NC(=O)Cn1nnc(C(=O)NCc2ccco2)c1N	0.078 µM
CCOc1ccc(N(CC(=O)Nc2ccccc2C)S(=O)(=O)c2c(C)noc2C)cc1	1.35 µM
CCN(CC)c1ccc2cc(-c3nc4ccccc4n3C)c(=O)oc2c1	0.32 µM

SMILES	CC50
CCOC(=O)N1CCC(NC(=O)c2ccc3c(c2)sc2nc(-c4cccc(OC)c4)cn23)CC1	35.1 µM (inactive)
Cn1cc(/C(Cc2ccccc2)=N\O)c2ccccc21	12.9 µM (inactive)
O=C(N1CCN(c2ccccn2)CC1)N1c2ccccc2Sc2ccccc21	0.669 µM
Cn1cc(/C=N/n2cnc3scc(-c4ccc(Cl)cc4)c3c2=O)c2ccccc21	0.373 µM
CC(O)CNc1nc2c(c(=O)n(C)c(=O)n2C)n1Cc1cccc(Br)c1 (centres undefined)	22.5 µM (inactive)
Cc1nn(-c2nc3ccccc3s2)c(C)c1Oc1ccccc1O	> 40 µM (inactive)
O=C(c1cc(-c2ccc(O)cc2)on1)N1CCc2ccccc2C1	> 40 µM (inactive)
COc1ccc(C(=O)C(CN2CCOCC2)c2ccccc2)cc1F (centres undefined)	5.09 µM (inactive)
O=C(CSC1=NCCS1)Nc1ccnc2ccccc12	> 40 µM (inactive)
CCCCCOC(=O)c1[nH]c2c(c1C)C(=O)CC(c1ccco1)C2 (centres undefined)	0.084 µM
CCOC(=O)N1CCN(c2c(NCc3cccs3)c(=O)c2=O)CC1	5.79 µM (inactive)
CCOC(=O)Nc1cc(=O)c2ccccc2o1	> 4.4 µM (inactive)
COc1ccc(N=Cc2c(O)[nH]c3ccccc23)cc1OC	11.3 µM (inactive)
COc1ccc(C2NC(=O)NC3=C2CCc2ccccc23)cc1 (centres undefined)	4.81 µM
Cc1cc(C(=O)OCC(=O)NCc2ccco2)c(C)n1-c1ccccc1	2.68 µM
CS(=O)c1nc(-c2ccc(Br)cc2)cc(-c2ccccc2)c1C#N (centres undefined)	0.631 µM
O=C(Nc1nc(-c2ccccc2)cs1)C1CCCN(S(=O)(=O)c2ccccc2)C1 (centres undefined)	20.9 µM (inactive)
O=C(Nc1nc(-c2ccc(S(=O)(=O)N3CCCCCC3)cc2)cs1)c1cccs1	> 40 µM (inactive)
Oc1ccc(-c2nc(-c3ccc(O)c(O)c3)cs2)cc1	0.167 µM
COc1cc(C(=O)N2CCN(c3ccc(C)cc3C)CC2)cc(OC)c1OC	1.69 µM
O=C(Nc1ccc2c(c1)CCC2)C1CCN(c2c3c(nc4ncnn24)CCC3)CC1	4.5 µM
Cn1c(SC2=CS(=O)(=O)c3ccccc32)nc2ccccc21	2.66 µM

SMILES	CC50
COc1ccc(CC(=O)Nc2cccc(-c3nnc(-c4ccccc4)o3)c2)cc1OC	15.8 µM (inactive)
O=C(c1cc2c(s1)-c1ccccc1OC2)N1CCC2(CC1)OCCO2	6.1 µM (inactive)
CCCCOc1ncnc2c1[nH]c1ccc(F)cc12	> 40 µM (inactive)
O=C(Cc1ccc(-n2cccc2)cc1)NCc1cccs1	0.513 µM
Cc1cccc(-n2c(O)c(C=Nc3ccccc3N)c(=O)[nH]c2=O)c1	> 13 µM (inactive)
COc1cc(C)c(Cl)cc1S(=O)(=O)NCc1ccncc1	3.1 µM
COc1ccccc1S(=O)(=O)Cc1ccc(C(=O)N2CCN(c3cccc(Cl)c3)CC2)o1	3.75 µM
CN(CCCC(=O)Nc1ccncc1)S(=O)(=O)c1ccc(Cl)cc1	5.53 µM (inactive)
COc1cc(C(=O)N2CCN(c3cccc(C)c3C)CC2)cc(OC)c1OC	0.37 µM
N=c1c2c(-c3ccccc3)c(-c3ccccc3)n(Cc3ccco3)c2ncn1Cc1ccco1	23.7 µM (inactive)
COc1ccc(CC(=O)Nc2cccc(-c3nnc(-c4cccc(C)c4)o3)c2)cc1OC	7.1 µM (inactive)
Cc1cc2nnc(SCC(=O)NCc3ccco3)n2c2ccccc12	1.9 µM
Cc1cc(C)n(-c2nnc3n2N=C(c2c[nH]c4ccccc24)CS3)n1	> 4.4 µM (inactive)
CCCS(=O)(=O)c1nnnn1-c1cccc(OC)c1	1.73 µM
C=C(C)COc1ccc(-c2[nH]ncc2-c2ccc(OC)c(OC)c2)c(O)c1	0.782 µM
O=C(C1CCN(S(=O)(=O)c2cccc3cccnc23)CC1)N1CCN(c2ccc(Cl)cc2)CC1	19.5 µM (inactive)
CN1c2ccccc2C(C)(C)C12C=Cc1cc(O)ccc1O2 (centres undefined)	10.4 µM (inactive)
CCOc1ccccc1C1CC(=O)NC2=C1C(=O)CCC2 (centres undefined)	3.6 µM
COc1ccc(-c2nnnn2-c2ccccc2OC)cc1	8.67 µM (inactive)
CCc1nnc(NC(=O)c2ccc(S(=O)(=O)N(CC(C)C)CC(C)C)cc2)o1	29.8 µM (inactive)
CCCCN(CC)S(=O)(=O)c1ccc(C(=O)Nc2nnc(-c3cccs3)o2)cc1	13.9 µM (inactive)
COC(=O)c1sc(N)c(C(=O)OC)c1COC(=O)c1c(C)noc1C	2.35 µM

SMILES	CC50
CCN(C)c1ccc(/C=N\n2nnnc2N)cc1	4.71 µM
Cc1ccc(S(=O)(=O)Nc2cccc3ncccc23)s1	10.3 µM (inactive)
Cc1onc(-c2ccccc2)c1C(=O)Nc1cc(C(F)(F)F)ccc1N1CCOCC1	2.15 µM
Nc1nc(-c2ccccc2)cc(N2CCCCC2)n1	0.877 µM
Cc1c(C(=O)OCCOC(C)C)[nH]c2c1C(=O)CC(c1ccco1)C2 (centres undefined)	0.156 µM
Cc1cc(NC(=O)COc2cccc(Oc3ccccc3)c2)no1	8.94 µM (inactive)
CCOC(=O)NC1(Nc2ccc(Cl)cn2)Oc2ccccc2O1	12.5 µM (inactive)
Oc1c(CN2CCCCC2)cc(COCc2ccccc2)c2cccnc12	3.31 µM
N#CC(C#N)=c1ccc2c(c1)NC1(CCCCC1)N=2	8.08 µM (inactive)
Cc1nc(C)c2c(=O)cc(-c3ccccc3)[nH]c2n1	4.05 µM
Cc1ccc(C)c2[nH]c(=O)c(CN(CCN3CCCC3)C(=O)Nc3cccc(Cl)c3)cc12	> 40 µM (inactive)
CCCCNc1ncnc2c1cnn2-c1ccc(Cl)cc1	2.56 µM
Cc1cc(C)nc(NC(=O)Nc2ccccc2C(F)(F)F)n1	> 4.4 µM (inactive)
CC1CCCCC1NS(=O)(=O)c1ccc(S(=O)(=O)NCc2ccncc2)cc1 (centres undefined)	2.37 µM
c1ccc2c(CCNc3ncnc4nc[nH]c34)c[nH]c2c1	3.85 µM
O=c1cc(-c2ccccc2)[nH]c2ccccc12	0.373 µM
Cc1cc(C)cc(NS(=O)(=O)c2ccc3[nH]cc(C(=O)NCc4ccco4)c(=O)c3c2)c1	5.48 µM (inactive)
CN(C)CC(C(=O)c1ccccc1)c1ccccc1 (centres undefined)	3.91 µM
COC(=O)/C=C/S(=O)(=O)c1ccc(NC(C)=O)cc1	2.31 µM
CCC(=O)Nc1nc2ccccc2n1Cc1ccc(C)cc1	> 40 µM (inactive)
Cn1nc(CC(=O)Nc2ccc3c(c2)OCCO3)c2ccccc2c1=O	0.96 µM
